# “And” between values parts separate entries of the source, which are not always exact repeats. Identical values can stand only once. “Also recorded” adds a separate entry of the source.
# Assays:
# [1] = In-life observations: body weight, gross findings before and at necropsy; format: in vivo, Male Fischer 344/N rats; settings: individual animals; for Initial Body Wt.: 48 hours group, baseline weight
# Description: Doses were determined with pilot experiments. […] Serum was collected for clinical chemistry.
# liver = test: Liver histopathology (H&E sections of left liver lobe, severity graded) after a single dose
# Description: The animals were acclimated for 14 days and observed for absence of disease.
# Doses were determined with pilot experiments. For each chemical, doses that elicited a sub-toxic ('low'), a moderately toxic ('medium') or a overtly toxic ('high') response 24 hours after treatment were selected. […] For each compound, control animal groups were treated with vehicle alone. All animals were fasted for 12-18 hours prior to exposure. Groups of four to six animals were dosed between 8:30 and 9:30 a.m.; thereafter, feed was provided ad libitum. After 6, 24 or 48 hours of treatment, animals were anesthetized by isoflurane anesthesia. Whole blood was collected via retro-orbital plexus for hematology and gene expression analysis. Serum was collected for clinical chemistry. The animals were euthanized while under anesthesia by cervical dislocation and necropsied within 4 minutes of sacrifice. The left liver lobe was promptly removed and two defined cross sections were placed in 10% neutral buffered formalin for subsequent histopathology.
# The cross sections that were fixed by immersion in 10% neutral buffered formalin (see 'In-life studies' section above) were transferred to histology grade alcohol for 18-24 hours after necropsy. Tissues were then processed, embedded in paraffin, sectioned at 5 microns, and stained with hematoxylin and eosin. A pathologist completed the initial microscopic evaluation of each liver sample for a given compound. […] An independent pathology quality assessment review was performed by a second pathologist on the initial histopathological findings.
# [2] = 15 mg/kg, gavage in corn oil, 48 hours after single dose
# [3] = 50 mg/kg, gavage in corn oil, 48 hours after single dose
# [4] = 150 mg/kg, gavage in corn oil, 48 hours after single dose
# [5] = Gavage, corn oil, 15 mg/kg, 6 hours
# [6] = Gavage, corn oil, 15 mg/kg, 24 hours
# [7] = Gavage, corn oil, 50 mg/kg, 6 hours
# [8] = Gavage, corn oil, 50 mg/kg, 24 hours
# [9] = Gavage, corn oil, 150 mg/kg, 6 hours
# [10] = Gavage, corn oil, 150 mg/kg, 24 hours
smiles,measurement,setting,value
CC(=N)S [Thioacetamide],Gross Findings,"[1]; 15 mg/kg, gavage in corn oil, 48 hours after single dose, at necropsy",No Gross Findings
same,Clin/Ob Prior to Necropsy,[1]; [2],Ungroomed appearance
same,Final Body Wt.,[1]; [2],264.10 g and 257.60 g and 259.00 g and 263.10 g
same,Gross Findings,"[1]; 50 mg/kg, gavage in corn oil, 48 hours after single dose, at necropsy","Liver left and median lobes rough surface mild; also recorded: Liver left lobe rough surface mild, median lobe pale rough surface mild; also recorded: Liver left and median lobes pale, mildly firm, rough surface"
same,Clin/Ob Prior to Necropsy,[1]; [3],Piloerection; also recorded: Ungroomed appearance
same,Final Body Wt.,[1]; [3],233.00 g and 228.70 g and 248.40 g and 236.30 g
same,Gross Findings,"[1]; 150 mg/kg, gavage in corn oil, 48 hours after single dose, at necropsy","Liver left and median lobes pale, firm, rough surface mild; Kidney red medulla; also recorded: Liver left and median lobes pale, minimally firm, rough surface mild"
same,Clin/Ob Prior to Necropsy,[1]; [4],Ungroomed appearance; piloerection; hunched posture; red fur discoloration (cranial dorsum); also recorded: Ungroomed appearance; piloerection; hunched posture; red nasal discharge
same,Final Body Wt.,[1]; [4],230.90 g and 232.40 g and 228.10 g and 228.50 g
same,Clin/Ob Prior to Necropsy,[1]; [5],Normal
same,Gross Findings,[1]; [5],No Gross Findings
same,Clin/Ob Prior to Necropsy,[1]; [6],Normal
same,Final Body Wt.,[1]; [6],261.90 g and 245.50 g and 259.10 g and 269.60 g
same,Gross Findings,[1]; [6],No Gross Findings; also recorded: Liver median lobe rough surface minimal
same,Clin/Ob Prior to Necropsy,[1]; [7],Normal
same,Gross Findings,[1]; [7],Liver left lobe mottled; also recorded: No Gross Findings
same,Clin/Ob Prior to Necropsy,[1]; [8],Ungroomed appearance; also recorded: Normal
same,Final Body Wt.,[1]; [8],231.40 g and 233.80 g and 239.30 g and 227.90 g
same,Gross Findings,[1]; [8],"No Gross Findings; also recorded: Liver left lobe rough surface mild, median lobe rough surface minimal; also recorded: Liver left lobe rough surface minimal, median lobe rough surface mild"
same,Clin/Ob Prior to Necropsy,[1]; [9],Normal
same,Gross Findings,[1]; [9],Liver left lobe mottled; also recorded: No Gross Findings
same,Clin/Ob Prior to Necropsy,[1]; [10],Normal; also recorded: Red nasal discharge
same,Final Body Wt.,[1]; [10],222.50 g and 236.40 g and 240.60 g
same,Gross Findings,[1]; [10],"Liver left and median lobes rough surface mild; also recorded: Liver left lobe mottled rough surface minimal, median lobe rough surface mild"
same,Initial Body Wt.,"[1]; thioacetamide 15 mg/kg, gavage in corn oil",244.40 g and 241.70 g and 243.00 g and 244.10 g
same,Initial Body Wt.,"[1]; thioacetamide 50 mg/kg, gavage in corn oil",243.30 g and 241.60 g and 248.50 g and 241.50 g
same,Initial Body Wt.,"[1]; thioacetamide 150 mg/kg, gavage in corn oil",240.40 g and 246.90 g and 242.10 g and 241.40 g
same,biliary hyperplasia,liver; 48 hours,evoked biliary hyperplasia
same,"extent of hepatocellular necrosis, amount of inflammatory cell infiltrates and/or indications of hepatocellular repair (mitosis) across animals","liver; high dose, 48 hour",variability
same,Primary site of livery injury,"liver; rat, single administration",Centrilobular

# From paper PMC2481421, “Gene expression response in target organ and whole blood varies as a function of target organ injury phenotype” (Genome Biology, 2008)
